Assay results taken from article PMC5512577, “PDE6δ-mediated sorting of INPP5E into the cilium is determined by cargo-carrier affinity” (Nature Communications, 2016).
Where two headings read alike, the source gives them in different places. Peptide text beside a SMILES is read from it. * marks the point of attachment. FITC = O=C1OC2(c3ccc(O)cc3Oc3cc(O)ccc32)c2ccc(NC(=S)*)cc21; Farnesyl = CC(C)=CCC/C(C)=C/CC/C(C)=C/C*

Legend:
PDE6δ [1] = test: Stopped-flow fluorescence polarization, dissociation of peptides from PDE6δ with and without Arl2/Arl3·GppNHp; format: binding; settings: 1 μM PDE6δ, 0.2 μM labelled peptide, 100-fold excess unlabelled peptide, 20 °C, ± s.d., n=4
Excerpt: Towards an explanation for the possible sorting mechanism that leaves some PDE6δ-cargo in the cell body but allows others to be enriched in the cilia we turned to the release activities of Arl2 and Arl3. […] While Arl2 is a non-ciliary protein, Arl3 localizes along the length of the cilium. Using fluorescence polarization, we measured the release of INPP5E and Rheb peptides from PDE6δ by the addition of Arl2 or Arl3 bound to the non-hydrolysable GTP analogue GppNHp. […] To compare the cargo release kinetics of Arl2·GppNHp and Arl3·GppNHp, we measured the dissociation rate constants of INPP5E and Rheb peptides from PDE6δ in the presence and absence of Arl3·GppNHp or Arl2·GppNHp, by adding a large excess of unlabelled peptide to silence the back reaction. […] The presence of Arl3·GppNHp or Arl2·GppNHp has a similar acceleration effect on the dissociation rate of Rheb peptide from PDE6δ (koff=27.2±0.7 and 15.3±0.3 s^−1, respectively, ±indicates s.d., n=4) (Fig. 2c,d).
Figure 2 INPP5E release from PDE6δ by Arl2·GppNHp and Arl3·GppNHp. (a) Fluorescence polarization measurements of 0.5 μM FITC-labelled Rheb peptide followed by addition of 0.5 μM PDE6δ and the addition of 5 μM Arl2·GppNHp or Arl3·GppNHp (arrow). (b) Fluorescence polarization measurements of 0.2 μM TAMRA-labelled INPP5E peptide followed by the addition of 0.2 μM PDE6δ (arrow) and 5 μM Arl2·GppNHp or Arl3·GppNHp (arrow). (c–f) Stopped-flow fluorescence polarization kinetic experiment where complexes of 1 μM PDE6δ with either 0.2 μM of FITC-labelled Rheb peptide (c,d) or TAMRA-labelled farnesylated INPP5E peptide (e,f) were mixed with 100-fold excess of unlabelled peptide and 10 μM of Arl2 (c,e) or Arl3 (d,f) as indicated.
(§1) All fluorescence polarization measurements were performed at 20 °C in a buffer containing 25 mM Tris-HCl (pH 7.5), 50 mM NaCl and 3 mM DTE. […]

[2] = test system: PDE6δ/farnesylated peptide complex; test: Fluorescence polarization release of farnesylated peptide from PDE6δ by Arl proteins; format: biochemical
Excerpt: Towards an explanation for the possible sorting mechanism that leaves some PDE6δ-cargo in the cell body but allows others to be enriched in the cilia we turned to the release activities of Arl2 and Arl3. […] While Arl2 is a non-ciliary protein, Arl3 localizes along the length of the cilium. Using fluorescence polarization, we measured the release of INPP5E and Rheb peptides from PDE6δ by the addition of Arl2 or Arl3 bound to the non-hydrolysable GTP analogue GppNHp. […] To compare the cargo release kinetics of Arl2·GppNHp and Arl3·GppNHp, we measured the dissociation rate constants of INPP5E and Rheb peptides from PDE6δ in the presence and absence of Arl3·GppNHp or Arl2·GppNHp, by adding a large excess of unlabelled peptide to silence the back reaction. […]
Figure 2 INPP5E release from PDE6δ by Arl2·GppNHp and Arl3·GppNHp. (a) Fluorescence polarization measurements of 0.5 μM FITC-labelled Rheb peptide followed by addition of 0.5 μM PDE6δ and the addition of 5 μM Arl2·GppNHp or Arl3·GppNHp (arrow). (b) Fluorescence polarization measurements of 0.2 μM TAMRA-labelled INPP5E peptide followed by the addition of 0.2 μM PDE6δ (arrow) and 5 μM Arl2·GppNHp or Arl3·GppNHp (arrow). […]
as §1
Arl3•GTP. Fluorescence polarization measurements of 0.2 µM TAMRA-labeled […]

PDE6δ [3] = test: Stopped-flow fluorescence polarization kinetics of mantGppNHp-loaded Arl proteins with PDE6δ; format: binding; settings: for association rate constant kon with PDE6δ: 0.2 μM mantGppNHp-loaded Arl protein, increasing PDE6δ; for association rate constant kon with PDE6δ / dissociation rate constant koff from PDE6δ: 20 °C; for association rate constant kon with PDE6δ / dissociation rate constant koff from PDE6δ / Kd: n=4; for dissociation rate constant koff from PDE6δ: 2 μM PDE6δ with 0.2 μM mantGppNHp-loaded Arl protein, 200-fold excess unlabelled Arl protein; for Kd: calculated from kinetic constants, ± s.d., read-out: equilibrium dissociation constant Kd with PDE6δ (Kd=koff/kon)
Protocol: Previously we have shown that the N-terminal helix of Arl3 is important to release myristoylated cargo from a complex with the shuttle factor UNC119 (ref. [30]). To find out whether the N-terminus of Arl3 and/or Arl2 has a similar if any role in the interaction with PDE6δ, fluorescence polarization measurements using full-length Arl3 (Arl3^fl) or an N-terminal truncated form (Arl3^ΔN) were performed. […] To investigate the role of the N-terminal helix of Arl3 in the release mechanism, we measured association and dissociation rate constants to determine the affinity of PDE6δ towards Arl2 and Arl3 in both full-length and N-terminal truncated forms. Association rate constants between the four proteins Arl3^fl, Arl3^ΔN, Arl2^fl and Arl2^ΔN are rather similar although association is almost twice as fast for full-length Arl3 as compared with Arl2 (Fig. 3a,b). […] The Kd values for Arl2^fl and Arl3^fl differ from previously determined values, likely because of the different techniques used.
Figure 3 Contribution of the N-terminal helix of Arl3 to the binding affinity with PDE6δ. (a) Stopped-flow fluorescence polarization kinetic measurements of the association of 0.2 μM mantGppNHp loaded Arl proteins with increasing concentrations of PDE6δ. The observed pseudo-first order rate constants (kobs) are plotted against PDE6δ concentration. (b) Bar charts of the association rate constants (kon) determined in a. (c,d) Stopped-flow fluorescence polarization kinetic experiments where complexes of 2 μM PDE6δ with 0.2 μM of full-length (Arl^fl) or N-terminally deleted (Arl^ΔN) mantGppNHp loaded Arl proteins as indicated were mixed with 200-fold excess of unlabelled Arl proteins to determine koff. (e) Bar charts of the dissociation rate constants (koff) from experiments in c,d. (f) Bar charts of the equilibrium dissociation constants (Kd) of complexes between PDE6δ and Arl proteins as determined from the kinetic constants in c,e. Error bars indicate s.d., n=4. TEXT PRINTED IN THE PICTURE: (b) Arl3^fl: kon (μM^-1s^-1): 5.97 | (b) Arl3^ΔN: kon (μM^-1s^-1): 4.25 | (b) Arl2^fl: kon (μM^-1s^-1): 2.25 | (b) Arl2^ΔN: kon (μM^-1s^-1): 3.09 | (e) Arl3^fl: koff (s^-1): 0.035 | (e) Arl3^ΔN: koff (s^-1): 0.92 | (e) Arl2^fl: koff (s^-1): 0.33 | (e) Arl2^ΔN: koff (s^-1): 0.98 | (f) Arl3^fl: kd (nM): 5.84 | (f) Arl3^ΔN: kd (nM): 217 | (f) Arl2^fl: kd (nM): 149 | (f) Arl2^ΔN: kd (nM): 319
All fluorescence polarization measurements were performed at 20 °C in a buffer containing 25 mM Tris-HCl (pH 7.5), 50 mM NaCl and 3 mM DTE. For the titration measurement, data were recorded with Fluoromax-4 spectrophotometer (HORIBA Jobin Yvon, Munich, Germany) with excitation and emission wavelengths at 530 and 580 nm for TAMRA-labelled INPP5E peptide and at 495 and 520 nm for fluorescein-labelled Rheb peptide. The kinetic measurements were monitored by a stopped-flow apparatus (Applied Photophysics) in the polarization mode using an excitation wavelength of 366 nm and filter with 420 nm cutoff for mantGppNHp bound Arl protein, excitation wavelength of 495 nm and filter with 520 nm cutoff for fluorescein-labelled Rheb peptide and excitation wavelength of 530 nm and filter with 570 nm cutoff for TAMRA-labelled INPP5E peptide. Data analysis was done with GraFit 5.0 program (Erithracus Software). Concentrations used for each experiment are indicated in the corresponding figure legend.

## COC(=O)[C@H](CSC/C=C(\C)CC/C=C(\C)CCC=C(C)C)NC(=O)[C@H](CO)NC(=O)[C@H](CO)NC(=O)[C@H](CCCCN)NC(=O)CNC(=O)[C@H](CCC(N)=O)NC(=O)[C@H](CO)NC(=S)Nc1ccc2c(c1)C(=O)OC21c2ccc(O)cc2Oc2cc(O)ccc21 [Rheb peptide] ({FITC}-SQGKSSC(Farnesyl)-OMe; N-terminus and C-terminus assumed)
PDE6δ [1]; 10 μM Arl2·GppNHp
  koff from PDE6δ in presence of Arl2·GppNHp: 15.3 ± 0.3 s⁻¹
PDE6δ [1]; 10 μM Arl3·GppNHp
  koff from PDE6δ in presence of Arl3·GppNHp: 27.2 ± 0.7 s⁻¹
PDE6δ [1]; absence of Arl2/3
  intrinsic dissociation rate koff from PDE6δ: 0.95 ± 0.004 s⁻¹
[2]; 0.5 μM FITC-Rheb peptide + 0.5 μM PDE6δ or 0.2 μM TAMRA-INPP5E peptide + 0.2 μM PDE6δ, 5 μM Arl·GppNHp
  release of peptide from PDE6δ by Arl2·GppNHp or Arl3·GppNHp: can be released by both Arl2·GppNHp and Arl3·GppNHp

## Arl3^fl: full-length Arl3, GppNHp or mantGppNHp loaded
[2]; 0.2 μM TAMRA-labelled INPP5E peptide, 0.2 μM PDE6δ, 5 μM Arl3fl or Arl3ΔN
  release of INPP5E peptide from PDE6δ by Arl3 form: unable to release the INPP5E peptide
PDE6δ [3]
  association rate constant kon with PDE6δ: 5.97e+06 M⁻¹ s⁻¹
  dissociation rate constant koff from PDE6δ: 0.035 s⁻¹
  Kd: 5.84 nM
PDE6δ [3]; listed as Arl3^ΔN
  association rate constant kon with PDE6δ: 4.25e+06 M⁻¹ s⁻¹
  dissociation rate constant koff from PDE6δ: 0.92 s⁻¹
  Kd: 217 ± 4.3 nM
PDE6δ [3]; Arl3 full-length versus ΔN
  increase of affinity to PDE6δ by the N-terminal helix: 37 fold
